Patent publication US20200385396A1, “Compond for treatment or prevention of obesity or diseases related to obesity, and application thereof” (SHANGHAI INSTITUTES FOR BIOLOGICAL SCIENCES, CHINESE …, priority 2017, published 2020)

Tests used:
Wnt signal = experiment: TOPFlash reporter gene activity test in HEK293T cells; type: cell-based
Description: The HEK293T cells used for the measurement of reporter gene activity were plated at 20 hours before transfection and cultured to about 50% coverage for the transfection. The transfection method was as described above. For HEK293T cells, transfection was performed according to 20 ng TOPFlash, 20 ng GFP and 460 ng lacZ per well, and Wnt3a or Nesfatin-1/NUCB2 protein was added at 18 hours after transfection to stimulate for 6-8 hours, and the cell was lysed with Boehringer Mannheim Luciferase Assay Kit (200 μl/well) for 15 minutes, 50 μl lysate was added in the fluorometer BIO-TEK Synergy2 (Gene Company Limited) to measure the GFP fluorescence intensity in the cell lysate as an internal standard, and then 20 μl luciferase substrate (Roche) was added for the reaction, the luciferase activity was detected in the chemiluminescence channel, and finally the GFP reading was used as an internal standard for homogenization.
We focus on the three small molecules HLY72, HLY103, and HSS49A (FIG. 3a). […] So that the first biochemical experiment design is: whether these three small molecules can compete for the binding of HLY179 to NUCB2 protein.

normal mice = experiment: Food intake of mice after single intraperitoneal injection; type: in vivo, mouse
Description: (§1) Mice were intraperitoneally injected with DMSO or HLY72 (dissolved in DMSO) 25 μL within 2 hours before turning off the lamp. During the intragastric experiment, the high concentration of HLY72 dissolved in DMSO was dissolved in 10% cyclodextrin, and the total volume was 100 μL Volume by gavage, so that the final concentration of DMSO was less than 10%. The diet was weighed at the 3rd hour, the 6th hour, the 12th hour, and the 24th hour respectively after the lights out. The corresponding mouse body weight was also weighed at the same time before the daily administration. The fat content of mice was measured with the magnetic resonance fat content measuring instrument of the animal platform in SIBCB.
The next question we are very concerned about is whether HLY78 has similar functions to NUCB2 protein in mice. Up to now, the most classic function reported for NUCB2 protein is to reduce the food intake of mice at night. Therefore, the experiment was designed: 20 mg/kg of HLY78 was injected intraperitoneally within two hours before turning off the lights at night, and then the food intake of the mice was measured at different time points (0-3 h, 0-6 h, 0-12 h, 0-24 h). […] During the three days of the adaptive injection period before HLY78 injection, both groups of mice were injected with DMSO. On the day of injection of HLY78 and the two days before the injection of DMSO, the body weight of the two groups of mice is also the same (FIG. 2b).
Next, two small molecules HLY72 and HLY103 were selected to perform functional experiments on the food intake in mice.

[1] = system: high-fat-induced obese mice; experiment: Weight loss in high-fat-induced obese mice, periodic intermittent administration; type: in vivo, mouse; conditions: 20 mg/kg
Description: All animal experiments were approved by the Animal Management Committee of SIBCB. C57BL/6 mice were purchased from Lingchang company (normal mice and high-fat diet-induced obese mice), C57/BLJ6 (NUCB2 gene knockout mice for breeding and background purification) were purchased from Lingchang company, OB/OB mice were purchased from Slack company. A high-fat diet (45% kcal, D12451) for inducing obese mice was purchased from Research Diets. Starting from the sixth week, it was fed with high-fat diet for 14-25 weeks. The rest of the mice used normal diet (13.5% kcal). The mice were housed in the SPF grade animal house of SIBCB. The lights were turned off for 12 hours (19: 00-07: 00), and the lights were turned on for 12 hours (07: 00-19: 00).
as §1
According to the previous results, it is considered that HLY72 should not be used continuously for a long time. In view of the fact that many mechanisms of NUCB2 functioning are still unclear, the simplest intermittent drug administration method was selected, that is, the drug was administered for 3 days, stopped for 4 days, one dosing cycle per week, and repeated for 3 courses (FIG. 10a).
In the high-fat-induced obese mouse model, three days after the first injection of HLY72, the body weight of the mice is decreased from 33.56±0.63 g to 31.61±0.74 g, and three days after the second administration, the body weight of mice is decreased from 31.23±0.57 g to 29.36±0.58 g, three days after the third administration, the body weight of mice is decreased from 29.39±0.51 g to 27.80±0.62 g, at the end of 21 days after 3 cycles, the overall weight of the mice is decreased from 33.56±0.63 g to 27.65±0.54 g (FIG. 10b). The whole process corresponds to 16.88%±0.51% of the total weight loss (FIG. 10c).

high-fat diet obese mice = experiment: Blood biochemical tests and liver slices of obese mice; type: in vivo, mouse; conditions: 20 mg/kg
Description: Mouse liver tissues were taken and fixed in 4% paraformaldehyde at 4° C. overnight. It was washed twice with PBS buffer solution in 30% and 50% ethanol for 30 minutes each, and stored in 70% ethanol at 4° C. (1) Gradient dehydration of ethanol: 80% ethanol for 30 minutes, 95% ethanol for 30 minutes, 100% ethanol for 15 minutes, and fresh 100% ethanol for 15 minutes. (2) Xylene transparent: ½ absolute ethanol plus ½ xylene for 15 minutes, xylene for 10 minutes, and fresh xylene for 10 minutes. (3) Wax immersion, embedding, sectioning: ½ xylene plus ½ paraffin for 30 minutes, paraffin 1 for 90 minutes, paraffin 2 for 120 minutes, paraffin 3 overnight for embedding, conventional section thickness was 4 μm, pasted on clean glass slides that have been processed, the slides were baked at 37° C. overnight, collected in a slide box and sealed at 4° C. (4) Xylene dewaxing, gradient ethanol rehydration: tissue sections were dewaxed three times with xylene, 10 minutes each time, and placed in ½ xylene plus ½ absolute ethanol for 15 minutes. After 5 minutes each of 100%, 90%, 80%, 70%, 50% and 30% ethanol, it was put in pure water for 5 minutes. (5) HE staining, filming: hematoxylin staining at room temperature for 20 minutes, rinsed under running water, color separation with 0.1% hydrochloric acid and ethanol for 1 second, rinsed under running water, after 1 minute each of 30%, 50%, 70%, 80% and 95% ethanol, it was stained with 1% eosin for 1 minute. It was put in absolute ethanol for 1 minute and dehydrated with fresh absolute ethanol twice for 5 minutes each time, it was put in ½ absolute ethanol plus ½ xylene for 15 minutes, and then xylene 1, 2, 3 for 5 minutes each time. Sealed with neutral gum and stored at room temperature in a dry place. The cell platform Olympus BX51 microscope was used for filming.
The effects on the various adverse indicators of obesity after drug administration were detected.

C=Cc1cccc2c1N(C)Cc1cc3c(cc1-2)OCO3 [HLY72]
activity of Wnt signal activation (Wnt signal): none of them have the activity of Wnt signal activation | food intake of mice (normal mice; 7.5 mg/kg): no significant effect | food intake of mice (normal mice; 15 mg/kg): significant gradient effect | food intake of mice (normal mice; 30 mg/kg): significant gradient effect | average daily food intake in the three administration periods compared with the DMSO group [1]: significant decrease | overall weight at the end of 21 days after 3 cycles ([1]; 3 cycles): 27.65 ± 0.54 g | body weight before the first administration ([1]; 3 days on / 4 days off, start): 33.56 ± 0.63 g | body weight three days after the first injection ([1]; course 1): 31.61 ± 0.74 g | body weight before the second administration ([1]; course 2): 31.23 ± 0.57 g | body weight three days after the second administration ([1]; course 2): 29.36 ± 0.58 g | body weight before the third administration ([1]; course 3): 29.39 ± 0.51 g | body weight three days after the third administration ([1]; course 3): 27.80 ± 0.62 g | total weight loss ([1]; whole process, 21 days, 3 cycles): 16.88%±0.51% | alanine transaminase ALT (high-fat diet obese mice): decreased | aspertate aminotransferase AST (high-fat diet obese mice): does not change | blood glucose (high-fat diet obese mice): decreased significantly | cholesterol levels (high-fat diet obese mice): decreased significantly | triacylglycerol (high-fat diet obese mice): decreased significantly | fatty liver caused by high fat (liver slices) (high-fat diet obese mice; HE staining): well treated
